According to patent publication EP2606887A1, “DIINDOLYLMETHANE, PRECURSOR AND DERIVATIVES THEREOF IN PREPARATION OF MEDICAMENTS FOR TREATING LIVER DISEASES” (Nanjing University, priority 2010, dated 2012):

Tests used:
[1] = tested on: TAA-induced model hepatic fibrosis in mice; assay: Treatment of TAA-induced model hepatic fibrosis in mice by oral (intragastric) administration; hydroxyproline test and alanine aminotransferase test; assay type: in vivo, ICR mice; settings: hepatic tissue, 20mg/kg intragastrically in corn oil, twice a week, 4 weeks, TAA 200mg/kg, mean value ± standard deviation; for hydroxyproline: TAA model group 356±43; for alanine aminotransferase: TAA model group 372±24
From the text: (§1) The following example is to be regarded as a case to illustrate specific details of this invention. It should not be viewed as to limit the application scope of this invention. Application of Indole-3-carbinol, Diindolylmethane and Derivatives thereof Disclosed in This Invention in the Treatment of Modeled Hepatic Fibrosis: • 1. Injecting the phosphate buffer solution of thioacetamide (TTA) into the abdominal cavity of ICR mice so that TTA models of hepatic fibrosis can be established. • 2. Dissolving indole-3-carbinol, diindolylmethane and derivative thereof in corn oil and treating hepatic fibrosis through intragastric administration at the same time of the establishment of TTA models of hepatic fibrosis. • 3. Administering TAA, indole-3-carbinol, diindolylmethane and derivatives thereof twice a week for four weeks in succession; killing the mice and taking out the liver for hydroxyproline test and alanine aminotransferase (ALT) test. Application of Water Injection of Indole-3-carbinol, Diindolylmethane and Derivatives thereof Disclosed in This Invention in the Treatment of Modeled Hepatic Fibrosis: • 1. Injecting the phosphate buffer solution of thioacetamide (TTA) into the abdominal cavity of ICR mice so that TTA models of hepatic fibrosis can be established. • 2. Dissolving indole-3-carbinol, diindolylmethane and derivative thereof in water and treating hepatic fibrosis through intraperitoneal administration at the same time of the establishment of TTA models of hepatic fibrosis. • 3. Administering TAA, indole-3-carbinol, diindolylmethane and derivatives thereof twice a week for four weeks in succession; killing the mice and taking out the liver for hydroxyproline test and alanine aminotransferase (ALT) test. Dissolving I3C, DIM and methoxyl-DIM in corn oil so that 2.0mg/ml stock solution can be obtained for later use; establishing TAA models of hepatic fibrosis in mice with the method commonly adopted in the related literature, namely, picking 40 mice weighing 16-18g and randomly dividing them into four groups: TAA model group, I3C treatment group, DIM treatment group and 5-methoxyl-DIM treatment group; injecting TAA phosphate buffer solution (200mg/kg) into the abdominal cavity of the mice, twice a week; starting the treatment at the same time of the model establishment: administering the correlated drugs intragastrically at the rate of 20mg/kg to the mice in I3C treatment group, DIM treatment group and 5-methoxyl-DIM treatment group, twice a week; in contrast, the mice in the TAA model group are given only corn oil at the same dosage and frequency. Killing all mice of the four groups 4 weeks later and taking out the pathologically changed hepatic tissue for hydroxyproline test and alanine aminotransferase test. • (1) Hydroxyproline test Preparing the tissue homogenate of the pathologically changed liver and extracting the supernatant thereof; testing the concentration of hydroxyproline by means of alkaline hydrolysis. • (2) Results of alanine aminotransferase test Testing the serum of mice so that the concentration of alanine aminotransferase can be determined. When hepatic fibrosis is in process, what accumulate in liver are mainly collagen fibers. Since hydroxyproline is specific to collagen fibers, its concentration to some extent reflects the degree of hepatic fibrosis. As is shown in table 1, the oral administration of I3C, DIM and derivatives thereof can effectively relieve hepatic fibrosis as the concentration of hydroxyproline in the treatment groups is significant lower than that of the TAA model group. […]

[2] = tested on: TAA-induced model hepatic fibrosis in mice; assay: Treatment of TAA-induced model hepatic fibrosis in mice by intraperitoneal administration of water injection; hydroxyproline test and alanine aminotransferase test; assay type: in vivo, ICR mice; settings: 20mg/kg intraperitoneally, water injection with cyclodextrin in physiological saline, twice a week, 4 weeks, mean value ± standard deviation; for alanine aminotransferase: TAA model group 392±31; for hydroxyproline: hepatic tissue, TAA model group 363±32
From the text: as §1, with “determined.” for “determined. When hepatic fibrosis is in process, what accumulate in liver are mainly collagen fibers. Since hydroxyproline is specific to collagen fibers, its concentration to some extent reflects the degree of hepatic fibrosis. As is shown in table 1, the oral administration of I3C, DIM and derivatives thereof can effectively relieve hepatic fibrosis as the concentration of hydroxyproline in the treatment groups is significant lower than that of the TAA model group.”

| Compound | hydroxyproline [1] [µg/g liver] | alanine aminotransferase [1] [U/mgprot] | alanine aminotransferase [2] [U/mgprot] | hydroxyproline [2] [µg/g liver] |
| --- | --- | --- | --- | --- |
| COc1ccc2[nH]cc(Cc3c[nH]c4ccc(OC)cc34)c2c1 [5-methoxyl-DIM] | 194±17 | 236±12 | 226±19 | 203±14 |
| c1ccc2c(Cc3c[nH]c4ccccc34)c[nH]c2c1 [DIM, 3,3'-Diindolylmethane] | 176±21 | 204±37 | 187±29 | 195±24 |
| OCc1c[nH]c2ccccc12 [I3 C, indole-3-carbinol] | 237±11 | 245±32 | 239±21 | 253±21 |
